Earlier results, collected in US20070054964A1 (Wyeth, priority 2005, published 2007).

Legend:
[1] = system: neuronal norepinephrine re-uptake
[2] = compared with ODV free base
[3] = oral administration, vs venlafaxine, ODV or other salts of ODV
[4] = compared with ODV free base; remark: listed apart in the source
[5] = target: H1-histaminergic receptors (Homo sapiens, UniProt P35367)
[6] = system: neuronal serotonin re-uptake
[7] = in vitro studies, Muth et al. 1991

Sequence of H1-histaminergic receptors (P35367 whole entry): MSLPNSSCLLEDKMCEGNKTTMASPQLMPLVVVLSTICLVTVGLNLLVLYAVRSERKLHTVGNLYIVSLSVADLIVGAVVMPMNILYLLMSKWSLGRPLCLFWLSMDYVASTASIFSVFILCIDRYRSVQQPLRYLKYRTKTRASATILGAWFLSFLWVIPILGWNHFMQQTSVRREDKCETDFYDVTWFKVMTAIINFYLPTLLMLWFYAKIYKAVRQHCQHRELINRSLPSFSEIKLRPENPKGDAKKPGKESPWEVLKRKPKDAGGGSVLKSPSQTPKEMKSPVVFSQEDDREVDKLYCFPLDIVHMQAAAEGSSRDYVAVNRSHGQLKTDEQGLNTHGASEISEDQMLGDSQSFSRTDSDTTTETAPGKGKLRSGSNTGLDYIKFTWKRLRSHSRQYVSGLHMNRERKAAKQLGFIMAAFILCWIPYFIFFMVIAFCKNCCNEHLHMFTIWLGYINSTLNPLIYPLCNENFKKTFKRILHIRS

Compound | inhibition of neuronal norepinephrine re-uptake [1] | inhibition of dopamine re-uptake (dopamine re-uptake) | affinity for α1-adrenergic receptors (α1-adrenergic receptors) | bioavailability [2] | incidence of nausea, vomiting, diarrhea, abdominal pain, headache, vaso-vagal malaise, and/or trismus [3] | permeability [4] | solubility compared with venlafaxine | affinity for H1-histaminergic receptors [5] | inhibition of neuronal serotonin re-uptake [6] | potency of serotonin re-uptake inhibition compared with venlafaxine [6, 7] | potency of norepinephrine re-uptake inhibition compared with venlafaxine [1, 7] | affinity for muscarinic receptors (muscarinic receptors)
COc1ccc(C(CN(C)C)C2(O)CCCCC2)cc1 (racemic) [Venlafaxine, (±)-1-[2-(dimethylamino)-1-(4-methoxyphenyl)ethyl]-cyclohexanol] | potent inhibitors | weak inhibitors | no significant affinity | – | – | – | – | – | – | – | – | –
CN(C)CC(c1ccc(O)cc1)C1(O)CCCCC1.O=C(O)CCC(=O)O (stereo not drawn) [ODV succinate] | – | – | – | improved | lower incidence | improved | – | – | – | – | – | –
CN(C)CC(c1ccc(O)cc1)C1(O)CCCCC1 (stereo not drawn) [ODV, 1-[2-(dimethyl-amino)-1-(4-phenyl)ethyl]-cyclohexanol] | potent inhibitors | weak inhibitors | no significant affinity | – | – | – | more soluble | no significant affinity | potent inhibitors | more potent inhibitor | more potent inhibitor | no significant affinity
